Patent US8022051B2, “Composition for protection and improvement of skin, or reinforcing skin barrier function comprising phosphatidylserine” (Doosan Corporation, priority 2004, dated 2011)

Tests used:
[1] = test system: erythema formation due to UVB on arm inside parts of examinees; experiment: Suppression of skin damage (erythema formation) due to ultraviolet irradiation in examinees; type: in vivo, human; settings: 0.5% aqueous solution, 30 μl pre-applied; UVB 2, 3 and 4 MED; compared to the control group; FIG. 1
Description: In order to examine a skin damage (inflammatory response)-alleviating effect of the phosphatidylserine of the invention, which stimulation results from the ultraviolet irradiation, a following experiment was performed. At this time, the skin stimulation (inflammatory response) due to the ultraviolet irradiation was measured with an erythema formation level.
First, it was measured minimal erythma dosage (MED) in arm inside parts of examinees (28 years old or more, 10 women and men, respectively). An aqueous solution including phosphatidylserine 0.5% (aqueous solution phase containing 5% PEG 300; PEG300, Sigma, US) was previously applied to the arm inside parts of the examinees in an amount of 30 μl which were then irradiated with UVB (Sankyo Denki G15T8E sunlamps UV-B, Japan) in an intensity of 2 MED (78 mj/cm^2), 3 MED (117 mj/cm^2) and 4 MED (156 mj/cm^2) to measure suppression degrees of the erythema formation. At this time, a group for which the phosphatidylserine was not treated was used as a control group.

[2] = test system: TPA-induced ear inflammation in CD-1 mouse; experiment: Alleviation of skin damage (inflammatory response) due to TPA in mouse ear; type: in vivo; settings: TPA 0.03%; applied 30 μl per cm^2 at 45 minutes and 4 hours after induction; phosphatidylserine 0.5%, clofibrate 1 mM, Wy14643 1 mM; FIG. 2
Description: In order to examine a skin damage (inflammatory response)-alleviating effect of the phosphatidylserine of the invention, which damage results from skin inflammation-inducing material, a following experiment was performed in accordance with a method used by Sheu et. al. (The Journal of Investigate Dermatology, 118, pp 94-101, 2002).
First, CD-1 mouse (male & female, 6-8 weeks, Charles River, US) was used as an experimental object. TPA (12-0-tetradecanoylphorbol-13-acetate) 0.03% (wt./vol.; in acetone) solution 10 μl, which was skin inflammation-inducing material, was treated to inner and outer parts of both ears of the experimental animal. The ear was thickened due to TPA and there occurred an inflammatory response. Then, clofibrate (1 mM) and Wy14643 (1 mM) as already-known positive control group, which are agonists of PPAR-a, and the 0.5% phosphatidylserine containing aqueous solution used as the Example 1 as an experimental material were applied to both ears in an amount of 30 μl per cm^2 at times of 45 minutes and 4 hours after the inflammation was induced. After that, the treated parts of the ears were subject to a biopsy, and the biopsy parts were fixed to 4% formaldehyde and then subject to Hematoxylene & Eosin (E&H) staining. The tissue slide stained with H&E was magnified to 100 folds to check the inflammation alleviation.

[3] = test system: skin keratinocyte cell line (HaCaT) and normal human keratinocytes; experiment: Reduction of inflammatory response induced by ultraviolet irradiation in skin keratinocytes (ELISA of TNF-a, IL-6, IL-1alpha); type: cell-based; settings: 25 mJ/cm^2 UVB; phosphatidylserine 20 and 40 μM, WY-14643 200 μM; 24 hours; FIG. 3
Description: In order to examine an inflammatory response-reducing effect of the phosphatidylserine of the invention in the skin keratinocyte, which response results from the ultraviolet irradiation, a following experiment was performed in accordance with a method disclosed in the literature (Stefan et. al., The Journal of Investigate Dermatology, 117, pp 1430-1436, 2001).
First, the skin keratinocyte cell line (HaCaT, a gift from Yonsei univeritym, Korea) was seeded to a 35 mm^2 of cell culture dish in an amount of 3×10^5 cells/dish and then cultured for a day. Next day, the culture medium was removed and the cell was washed with 1× phosphate-buffered saline (PBS), 700 μl of 1×PBS was added to each of the dishes, it was irradiated 25 mJ/cm^2 UVB and then PBS was removed. […] Next day, the culture medium was collected and then amounts of TNF-a and IL-6 which have been known as inflammatory cytokines were measured with an enzyme-linked immunosorbent assay (ELISA) method. In addition, in order to check that there occurred a similar inflammatory response reducing effect also in the normal human skin keratinocyte, an experiment was performed in the above-mentioned manner using normal human keratinocytes (a gift from Dong-guk University) instead of the HaCaT cell line and then an amount of IL-1alpha secreted to the culture medium was measured with the ELISA.

[4] = test system: skin of back region of CD-1 mouse; experiment: Skin differentiation promotion in the mouse (involucrin and loricrin expression); type: in vivo; settings: 0.5% aqueous solution, 50 μl two times per day for two weeks; compared to negative control group; FIG. 6
Description: In order to examine a differentiation promotion of the skin in a mouse model, a following experiment was performed.
First, 0.5% phosphatidylserine aqueous solution was applied to the skin of a back region of the mouse (CD-1 mouse, male&female, 6-8 weeks, Charles River, USA) in an amount of 50 μl two times per a day for two weeks. After that, the skin tissue of the treated region was subject to the biopsy and then the biopsy tissue was fixed to 4% formaldehyde and sliced. Then, antibodies for involucrin and loricrin were attached and an expression amount of the protein was examined.

[5] = test system: hairless mouse; experiment: Skin barrier function restoration (TEWL) after tape stripping in hairless mice, oral administration; type: in vivo; settings: 0.8 mg/mouse once a day for three weeks, up to 24 hours, compared to mouse not given phosphatidylserine, FIG. 9
Description: In this example 9, it was examined a difference of water loss restoration rates in a group to which the phosphatidylserine was administrated and a group to which the phosphatidylserine was not administrated, using the hairless mouse, so as to examine an effect of the phosphatidylserine on the skin barrier function restoring reinforcement.
First, a solution in which the phosphatidylserine (DS-PS, Doosan, Korea) was dispersed in a tertiary distilled water in a concentration of 400 mg/100 ml was used as a test material. It was prepared 10 hairless induced mice which were […] (Japan SLC Inc., Shizuoka, Japan). The solution was orally administrated to 5 mice of them in a dosage of 0.8 mg phosphatidylserine/mouse once a day and the tertiary distilled water was orally administrated to the other 5 mice. The medication period was three weeks. After that, it was measured a water evaporation loss for both sides of the backs of the hairless mice using a TEWL apparatus (TEWAMETER, TW210, Germany) (normal skin: about 10±2 g/hm^2). A Scotch tape was attached to the same positions and then cleared. […] After that, it was measured the water evaporation losses as time went by (i.e., before the injury, immediately after the injury, after 6 hours, after 9 hours and after 24 hours) to check the restoration rate of the skin barrier.

phosphatidylserine
erythema formation [1]: considerably suppressed
inflammation alleviation (H&E stained ear tissue) [2]: inflammation was alleviated
inflammatory response increased due to the ultraviolet irradiation (TNF-a, IL-6, IL-1alpha amounts) [3]: considerably alleviated
expression amounts of involucrin and loricrin in skin [4]: remarkably increased
restoration rate of the skin barrier function (TEWL) [5]: higher restoration rate
